Drawing on patent publication US20240308995A1, “O-GLYCOPROTEIN-2-ACETAMIDO-2-DEOXY-3-D-GLUCOPYRANOSIDASE INHIBITORS” (BIOGEN MA INC., priority 2018, published 2024), this text covers IC50 for eight molecules.

In test [1] the target is OGA (S400 O-GLCNAC), HEK-293T cells transfected with Tau-V5 (Homo sapiens (Human), UniProt O60502). The test is described as follows: Cellular OGA-Tau MSD Assay. Format: cell-based. The conditions noted are these: HEK-293T cells, Tau-S400-GlcNAc MSD readout. The procedure: HEK-293T cells were transfected with […] and Tau-V5 plasmids using Lipofectamine and grown overnight. Next day, the cells were collected and re-plated at 1×10^5 cells per well in 96 well plates. Cells were incubated for 4 hr at 37° C., before compounds were added at 1 uM, with 3-fold dilutions in a 10-point titration. Cell plates were incubated with compounds overnight at 37° C. The next day media was removed from wells by gentle aspiration and 120 ul of 1× Cell Lysis buffer mixed with protease and phosphatase cocktail added to each well. A freeze thaw was performed at -80° C., then mixed before transferring 50 ul to MSD plates coated with V5-tag antibody to capture Tau. MSD Plates were incubated overnight at 4° C., on a plate shaker. The following day, plates were washed and incubated with Tau-[…]-GlcNAc antibody for 2 hr and then developed with rabbit Sulfo-tag antibody. Final read out was carried out on an MSD 600 reader. The data was analyzed using Graph Pad or Genedata, the data was normalized and % activity versus log of compound concentration was plotted. The IC50 values were obtained from a 4 parameter fit.
Chain of OGA (S400 O-GLCNAC), HEK-293T cells transfected with Tau-V5 (O60502 whole entry): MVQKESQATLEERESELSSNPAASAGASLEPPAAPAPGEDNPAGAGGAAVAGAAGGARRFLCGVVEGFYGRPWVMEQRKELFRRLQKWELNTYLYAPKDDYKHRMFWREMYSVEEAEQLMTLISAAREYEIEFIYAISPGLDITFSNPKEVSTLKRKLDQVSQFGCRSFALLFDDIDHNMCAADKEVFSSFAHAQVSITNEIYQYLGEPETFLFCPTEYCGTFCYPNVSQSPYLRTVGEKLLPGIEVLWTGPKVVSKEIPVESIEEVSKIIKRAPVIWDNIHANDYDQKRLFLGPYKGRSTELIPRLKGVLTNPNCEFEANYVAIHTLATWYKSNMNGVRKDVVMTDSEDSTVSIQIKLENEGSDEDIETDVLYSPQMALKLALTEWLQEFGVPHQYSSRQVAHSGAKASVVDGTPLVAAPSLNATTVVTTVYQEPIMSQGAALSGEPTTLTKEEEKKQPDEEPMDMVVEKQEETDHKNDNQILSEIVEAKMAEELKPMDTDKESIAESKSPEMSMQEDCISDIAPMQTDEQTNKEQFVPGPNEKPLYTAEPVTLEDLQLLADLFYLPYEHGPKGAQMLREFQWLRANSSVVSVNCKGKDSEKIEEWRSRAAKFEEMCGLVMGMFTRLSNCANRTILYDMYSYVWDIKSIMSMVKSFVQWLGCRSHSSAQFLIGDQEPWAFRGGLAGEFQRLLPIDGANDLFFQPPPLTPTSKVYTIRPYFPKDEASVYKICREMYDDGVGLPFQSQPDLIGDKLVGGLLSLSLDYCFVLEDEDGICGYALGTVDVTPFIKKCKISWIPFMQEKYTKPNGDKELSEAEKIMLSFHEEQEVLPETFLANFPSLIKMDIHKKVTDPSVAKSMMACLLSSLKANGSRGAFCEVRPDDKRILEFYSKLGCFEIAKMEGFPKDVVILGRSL

Test [2] deals with Recombinant full length human OGA enzyme (Homo sapiens (Human), UniProt O60502). The test is described as follows: OGA Enzyme Inhibition Biochemical Assay. The conditions noted are these: 1 nM OGA, 100 μM 4-MUGlcNAc, pH 6.4. The procedure: Recombinant full length human OGA enzyme was purchased from Origene. 4-MUGlcNAc substrate was purchased from Sigma. All other reagents were purchased from Sigma or Fisher. Assay buffer consists of the McIlvaine buffer system, pH 6.4 (0.2M Na2HPO4 mixed with 0.1M citric acid) and 0.01% BSA. […] Reactions were incubated for 90 minutes at room temperature and quenched with 40 μl of 3M glycine, pH 10 and read on a Perkin Elmer Envision plate reader (Ex: 355 nm/Em: 460 nm). Compounds were tested with a 10-point dose-response starting from 20 μM with a 4-fold dilution. Data was fit using GraphPad Prism using a 4-parameter fit with variable slope.
Chain of Recombinant full length human OGA enzyme (O60502 whole entry): as above

On to `CC(=O)Nc1ncc(CN2C[C@H](Oc3cc(C(F)(F)F)ncn3)C[C@@H]2C)s1` [Example 1-79, N-(5-(((2S,4R)-2-methyl-4-((6-(trifluoromethyl)pyrimidin-4-yl)oxy)pyrrolidin-1-yl)methyl)thiazol-2-yl)acetamide], for which the IC50 in test [1] was determined as 41 nM; in test [2] it was 11 nM.
For `COc1ccc(O[C@@H]2C[C@H](C)N(Cc3sc(NC(C)=O)nc3F)C2)nn1` [Example 1-84, N-(4-fluoro-5-(((2S,4R)-4-((6-methoxypyridazin-3-yl)oxy)-2-methylpyrrolidin-1-yl)methyl)thiazol-2-yl)acetamide] the same measures were 1 nM and < 1 nM.
Consider `COc1cc(O[C@@H]2C[C@H](C)N(Cc3sc(NC(C)=O)nc3F)C2)ccn1` [Example 1-100, N-(4-fluoro-5-(((2S,4R)-4-((2-methoxypyridin-4-yl)oxy)-2-methylpyrrolidin-1-yl)methyl)thiazol-2-yl)acetamide], for which the values for the IC50 in test [1] and in test [2] were 1 nM and < 1 nM, respectively.
For `CC(=O)Nc1nc(F)c(CN2C[C@H](Oc3ccc(F)nn3)C[C@@H]2C)s1` [Example 1-111, N-(4-fluoro-5-(((2S,4R)-4-((6-fluoropyridazin-3-yl)oxy)-2-methylpyrrolidin-1-yl)methyl)thiazol-2-yl)acetamide], the IC50 in test [1] is 1 nM; in test [2], < 1 nM.
The matching figures for `CC(=O)Nc1ncc(CN2C[C@H](Oc3cc(OC4CCC4)ncn3)C[C@@H]2C)s1` [Example 1-121, N-(5-(((2S,4R)-4-((6-cyclobutoxypyrimidin-4-yl)oxy)-2-methylpyrrolidin-1-yl)methyl)thiazol-2-yl)acetamide]: 3 nM and < 1 nM.
The matching figures for `CNc1cc(O[C@@H]2C[C@H](C)N(Cc3cnc(NC(C)=O)s3)C2)ncn1` [Example 1-137, N-(5-(((2S,4R)-2-methyl-4-((6-(methylamino)pyrimidin-4-yl)oxy)pyrrolidin-1-yl)methyl)thiazol-2-yl)acetamide]: 2 nM and < 1 nM.
For `CC(=O)Nc1nc(F)c(CN2C[C@H](Oc3cc(OC4CN(C)C4)ncn3)C[C@@H]2C)s1` [Example 1-141, N-(4-fluoro-5-(((2S,4R)-2-methyl-4-((6-((1-methylazetidin-3-yl)oxy)pyrimidin-4-yl)oxy)pyrrolidin-1-yl)methyl)thiazol-2-yl)acetamide] the same measures were 7 nM and 1 nM.
Turning to `[2H][C@]1(Oc2cc(OC)ncn2)C[C@H](C)N(Cc2sc(NC(C)=O)nc2F)C1` [Example 1-166, N-(4-fluoro-5-(((2S,4S)-4-((6-methoxypyrimidin-4-yl)oxy)-2-methylpyrrolidin-1-yl-4-d)methyl)thiazol-2-yl)acetamide], the IC50 in test [1] turned out to be 11 nM; in test [2], 13 nM.
